In the supplement of paper PMC8671470:

System: ML-2
Assay: cell viability (% survival relative to DMSO control, bortezomib = 0%); higher = less cytotoxic
Conditions: 10 nM; 72 h
Summary of the method: (§1)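 Percent survival figures are means of duplicate wells. They were obtained by CellTiter-Glo luminescence after 10 AML and 5 CML cell lines spent 72 h at 37 °C with 5% CO2 in 384-well plates with compounds at 1, 10, 100, 1000 or 10000 nM. Vehicle was set to 100% and a 10 µM positive control to 0%.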

First: CCN(CC)CCCC(C)Nc1ccnc2cc(Cl)ccc12 (stereo unspecified) [Chloroquine]
Second: Nc1nc(Cl)nc2c1ncn2[C@H]1C[C@H](O)[C@@H](CO)O1 [Cladribine]
The cell viability of the first is lower: 98.7% for the first, 100% for the second.

With `NCCCC(N)(C(=O)O)C(F)F` (stereo unspecified) [Difluoromethylornithine] the cell viability was 79.1%.

Same assay, conditions: 100 nM; 72 h

First: COc1ccc(S(=O)(=O)N2CCN(S(=O)(=O)c3ccc4c(c3)OCCO4)CC2)cc1 [BML283]
Second: O=C1O/C(=C/Br)CCC1c1cccc2ccccc12 (stereo unspecified) [Bromoenol Lactone]
The cell viability of the first is higher: 105% for the first, 94.6% for the second.

First: O=c1cc(-c2ccccc2)oc2cc(O)c(O)c(O)c12 [Baicalein]
Second: O=c1oc2c(O)c(O)cc3c(=O)oc4c(O)c(O)cc1c4c23 [Benzoaric Acid]
The cell viability of the first is lower: 87.5% for the first, 95.9% for the second.

First: COC(=O)[C@]12CCC(C)(C)C[C@H]1[C@H]1C(=O)C=C3[C@@]4(C)C=C(C#N)C(=O)C(C)(C)[C@@H]4CC[C@@]3(C)[C@]1(C)CC2 [Bardoxolone methyl]
Second: CC(C)c1cc2c(c(O)c1O)[C@@]1(C(=O)O)CCCC(C)(C)[C@@H]1CC2 [Carnosic acid]
The cell viability of the first is higher: 113% for the first, 85.9% for the second.

Going from `Cc1c(-c2ccc(-c3ccccc3F)cc2)nc2ccc(F)cc2c1C(=O)O` [Brequinar] to `O=C(O)CCCCC(CCSCc1ccccc1)SCc1ccccc1` (stereo unspecified) [CPI-613], the cell viability rises from 88.9% to 103%.

Going from `CCN(CC)CCCC(C)Nc1ccnc2cc(Cl)ccc12` (stereo unspecified) [Chloroquine] to `Nc1nc(Cl)nc2c1ncn2[C@H]1C[C@H](O)[C@@H](CO)O1` [Cladribine], the cell viability falls from 97% to 85.5%.

Work on `NCCCC(N)(C(=O)O)C(F)F` (stereo unspecified) [Difluoromethylornithine] yielded a cell viability of 93.4%.

Same assay, conditions: 1000 nM; 72 h

First: COc1ccc(S(=O)(=O)N2CCN(S(=O)(=O)c3ccc4c(c3)OCCO4)CC2)cc1 [BML283]
Second: O=C1O/C(=C/Br)CCC1c1cccc2ccccc12 (stereo unspecified) [Bromoenol Lactone]
The cell viability of the first is higher: 106% for the first, 92.9% for the second.

Going from `O=c1cc(-c2ccccc2)oc2cc(O)c(O)c(O)c12` [Baicalein] to `O=c1oc2c(O)c(O)cc3c(=O)oc4c(O)c(O)cc1c4c23` [Benzoaric Acid], the cell viability falls from 97.9% to 95.1%.

First: COC(=O)[C@]12CCC(C)(C)C[C@H]1[C@H]1C(=O)C=C3[C@@]4(C)C=C(C#N)C(=O)C(C)(C)[C@@H]4CC[C@@]3(C)[C@]1(C)CC2 [Bardoxolone methyl]
Second: CC(C)c1cc2c(c(O)c1O)[C@@]1(C(=O)O)CCCC(C)(C)[C@@H]1CC2 [Carnosic acid]
The cell viability of the first is lower: 73.1% for the first, 94.5% for the second.

First: Cc1c(-c2ccc(-c3ccccc3F)cc2)nc2ccc(F)cc2c1C(=O)O [Brequinar]
Second: O=C(O)CCCCC(CCSCc1ccccc1)SCc1ccccc1 (stereo unspecified) [CPI-613]
The cell viability of the first is higher: 107% for the first, 98.2% for the second.

First: CCN(CC)CCCC(C)Nc1ccnc2cc(Cl)ccc12 (stereo unspecified) [Chloroquine]
Second: Nc1nc(Cl)nc2c1ncn2[C@H]1C[C@H](O)[C@@H](CO)O1 [Cladribine]
The cell viability of the first is higher: 100% for the first, 7.04% for the second.

With `NCCCC(N)(C(=O)O)C(F)F` (stereo unspecified) [Difluoromethylornithine] the cell viability was 92.1%.

Same assay, conditions: 10000 nM; 72 h

First: COc1ccc(S(=O)(=O)N2CCN(S(=O)(=O)c3ccc4c(c3)OCCO4)CC2)cc1 [BML283]
Second: O=C1O/C(=C/Br)CCC1c1cccc2ccccc12 (stereo unspecified) [Bromoenol Lactone]
The cell viability of the first is higher: 102% for the first, 59.7% for the second.

Compared with `O=c1cc(-c2ccccc2)oc2cc(O)c(O)c(O)c12` [Baicalein], `O=c1oc2c(O)c(O)cc3c(=O)oc4c(O)c(O)cc1c4c23` [Benzoaric Acid] is higher in cell viability: 37.7% for the first, 108% for the second.

First: COC(=O)[C@]12CCC(C)(C)C[C@H]1[C@H]1C(=O)C=C3[C@@]4(C)C=C(C#N)C(=O)C(C)(C)[C@@H]4CC[C@@]3(C)[C@]1(C)CC2 [Bardoxolone methyl]
Second: CC(C)c1cc2c(c(O)c1O)[C@@]1(C(=O)O)CCCC(C)(C)[C@@H]1CC2 [Carnosic acid]
The cell viability of the first is lower: -0.425% for the first, 67.6% for the second.

First: Cc1c(-c2ccc(-c3ccccc3F)cc2)nc2ccc(F)cc2c1C(=O)O [Brequinar]
Second: O=C(O)CCCCC(CCSCc1ccccc1)SCc1ccccc1 (stereo unspecified) [CPI-613]
The cell viability of the first is lower: 40.3% for the first, 95.8% for the second.

Compared with `CCN(CC)CCCC(C)Nc1ccnc2cc(Cl)ccc12` (stereo unspecified) [Chloroquine], `Nc1nc(Cl)nc2c1ncn2[C@H]1C[C@H](O)[C@@H](CO)O1` [Cladribine] is lower in cell viability: 94% for the first, 2.51% for the second.

Compound `NCCCC(N)(C(=O)O)C(F)F` (stereo unspecified) [Difluoromethylornithine] has a cell viability of 96.5%.

System: NOMO-1
Assay: as above
Conditions: 1 nM; 72 h
Summary of the method: as §1

Compared with `COc1ccc(S(=O)(=O)N2CCN(S(=O)(=O)c3ccc4c(c3)OCCO4)CC2)cc1` [BML283], `O=C1O/C(=C/Br)CCC1c1cccc2ccccc12` (stereo unspecified) [Bromoenol Lactone] is higher in cell viability: 98% for the first, 108% for the second.

First: O=c1cc(-c2ccccc2)oc2cc(O)c(O)c(O)c12 [Baicalein]
Second: O=c1oc2c(O)c(O)cc3c(=O)oc4c(O)c(O)cc1c4c23 [Benzoaric Acid]
The cell viability of the first is lower: 99.2% for the first, 102% for the second.

Compared with `COC(=O)[C@]12CCC(C)(C)C[C@H]1[C@H]1C(=O)C=C3[C@@]4(C)C=C(C#N)C(=O)C(C)(C)[C@@H]4CC[C@@]3(C)[C@]1(C)CC2` [Bardoxolone methyl], `CC(C)c1cc2c(c(O)c1O)[C@@]1(C(=O)O)CCCC(C)(C)[C@@H]1CC2` [Carnosic acid] is lower in cell viability: 99.4% for the first, 96.5% for the second.

Going from `Cc1c(-c2ccc(-c3ccccc3F)cc2)nc2ccc(F)cc2c1C(=O)O` [Brequinar] to `O=C(O)CCCCC(CCSCc1ccccc1)SCc1ccccc1` (stereo unspecified) [CPI-613], the cell viability rises from 97.3% to 101%.

Going from `CCN(CC)CCCC(C)Nc1ccnc2cc(Cl)ccc12` (stereo unspecified) [Chloroquine] to `Nc1nc(Cl)nc2c1ncn2[C@H]1C[C@H](O)[C@@H](CO)O1` [Cladribine], the cell viability rises from 110% to 111%.

`NCCCC(N)(C(=O)O)C(F)F` (stereo unspecified) [Difluoromethylornithine] gave a cell viability of 99.5%.

Same assay, conditions: 10 nM; 72 h

Compared with `COc1ccc(S(=O)(=O)N2CCN(S(=O)(=O)c3ccc4c(c3)OCCO4)CC2)cc1` [BML283], `O=C1O/C(=C/Br)CCC1c1cccc2ccccc12` (stereo unspecified) [Bromoenol Lactone] is higher in cell viability: 95.1% for the first, 100% for the second.

Compared with `O=c1cc(-c2ccccc2)oc2cc(O)c(O)c(O)c12` [Baicalein], `O=c1oc2c(O)c(O)cc3c(=O)oc4c(O)c(O)cc1c4c23` [Benzoaric Acid] is higher in cell viability: 91.3% for the first, 104% for the second.

Compared with `COC(=O)[C@]12CCC(C)(C)C[C@H]1[C@H]1C(=O)C=C3[C@@]4(C)C=C(C#N)C(=O)C(C)(C)[C@@H]4CC[C@@]3(C)[C@]1(C)CC2` [Bardoxolone methyl], `CC(C)c1cc2c(c(O)c1O)[C@@]1(C(=O)O)CCCC(C)(C)[C@@H]1CC2` [Carnosic acid] is higher in cell viability: 99.3% for the first, 100% for the second.

Going from `Cc1c(-c2ccc(-c3ccccc3F)cc2)nc2ccc(F)cc2c1C(=O)O` [Brequinar] to `O=C(O)CCCCC(CCSCc1ccccc1)SCc1ccccc1` (stereo unspecified) [CPI-613], the cell viability falls from 95.3% to 95.2%.

Compared with `CCN(CC)CCCC(C)Nc1ccnc2cc(Cl)ccc12` (stereo unspecified) [Chloroquine], `Nc1nc(Cl)nc2c1ncn2[C@H]1C[C@H](O)[C@@H](CO)O1` [Cladribine] is higher in cell viability: 99.3% for the first, 101% for the second.

With `NCCCC(N)(C(=O)O)C(F)F` (stereo unspecified) [Difluoromethylornithine] the cell viability was 91.5%.

Same assay, conditions: 100 nM; 72 h

First: COc1ccc(S(=O)(=O)N2CCN(S(=O)(=O)c3ccc4c(c3)OCCO4)CC2)cc1 [BML283]
Second: O=c1cc(-c2ccccc2)oc2cc(O)c(O)c(O)c12 [Baicalein]
The cell viability of the first is lower: 94.9% for the first, 104% for the second.

Compound `COC(=O)[C@]12CCC(C)(C)C[C@H]1[C@H]1C(=O)C=C3[C@@]4(C)C=C(C#N)C(=O)C(C)(C)[C@@H]4CC[C@@]3(C)[C@]1(C)CC2` [Bardoxolone methyl] has a cell viability of 115%.
